Values of other authors, collected in patent publication US9102664B2, “Process for the preparation of triazole antifungal drug, its intermediates and polymorphs thereof” (MSN Laboratories Limited, priority 2011, dated 2015).

What was measured:
[1] = produced per U.S. Pat. No. 5,661,151 using 6N HCl in methanol
[2] = under the conditions investigated in WO 99/18097

Row | stability of amorphous form [1] | stability of crystalline form [2] | Structure (SMILES)
1 | not stable | – | CC[C@@H]([C@H](C)O)n1ncn(-c2ccc(N3CCN(c4ccc(OC[C@@H]5CO[C@@](Cn6cncn6)(c6ccc(F)cc6F)C5)cc4)CC3)cc2)c1=O [Amorphous form of posaconazole, posaconazole]
2 | – | unstable | CC[C@@H]([C@H](C)O)n1ncn(-c2ccc(N3CCN(c4ccc(OC[C@@H]5CO[C@@](Cn6cncn6)(c6ccc(F)cc6F)C5)cc4)CC3)cc2)c1=O [form II, posaconazole]
